Results: patent US10342792B2, “Slow-release conjugates of SN-38” (ProLynx LLC, priority 2013, dated 2019)
Where “and” joins values, the source holds several entries; their conditions need not be identical. Identical values can stand only once. Like-named read-outs stand apart in the source and are kept apart here.

Columns and labels:
in vivo = details: female, Sprague-Dawley, rat
Procedure: The samples were centrifuged at approximately 1,500×g (force) for 10 minutes at 2 to 8° C. to remove red blood cells and obtain ˜150 uL plasma. The plasma was divided into 2 aliquots and transferred to cryogenic vials and stored in a freezer at −80° C. prior to analysis.
For analysis, the samples were thawed on ice and mixed with 2 volumes of acetonitrile/0.5% acetic acid containing 8 ng/mL of camptothecin as internal standard. Precipitated protein was removed by centrifugation at 16,000×g for 10 min at 4° C. Sample supernatants (20 uL) were analyzed using a Phenomenex® 300 Å Jupiter 5 um 150×4.6 mm C18 HPLC column thermostatted at 40° C. using a gradient of 100 mM sodium phosphate, 3 mM heptane sulfonate, pH 4.0 (Buffer A) and 75% acetonitrile in water (Buffer B) at 1.0 mL/min. […] Sample elution was followed with a diode array detector and a fluorescence detector with excitation set at 370 nm and the emission set at 470 nm for the first 9 min followed by emission at 534 nm for the final 10 min. Concentrations were calculated by comparison of peak areas to standard curves of the conjugate (absorbance 380 nm), and SN-38 (fluorescence Ex: 370 nm; Em: 534 nm). […]
Plasma concentration versus time data for the conjugate were analyzed using a two-phase model where C(t)=A*exp(−αt)+B*exp(−βt) where A+B=dose/Vd. […]

[1] = cited from earlier work
[2] = ionization of the 10-OH; cited from earlier work
[3] = fold more active than irinotecan; cited from earlier work
[4] = cited from earlier work; remark: listed apart in the source
[5] = Pharmacokinetic model prediction for human using allometric scaling; details: estimated by allometric scaling

In the case of `CCc1c2c(nc3ccc(O)cc13)-c1cc3c(c(=O)n1C2)COC(=O)[C@]3(O)CC` [SN-38, 7-ethyl-10-hydroxycamptothecin], the half-life (in vivo) is listed as 15 min, the “kc1, elimination of free SN-38 from the plasma” value (in vivo) is listed as 2.77 h⁻¹ and the aqueous solubility ([1]; aqueous / water) is listed as 18 µM and 17 µM. For the same compound, the aqueous solubility ([1]; in water) was 7 mg/L, the pKa [2] was about 8.6 and the “activity relative to irinotecan” value [3] was about 1000 ×. For the same compound, the “volume of distribution Vd, reported value” [4] was 0.18 L/kg, the Vss [5] was about 0.15 L/kg and the “kc1, elimination rate constant” value [5] was about 0.7 h⁻¹. The “kc1 t1/2” value [5] was about 1 h.
